The test relates to BDF1 mice, P388 leukemia ip, median survival T/C. In words: NCI In Vivo Anticancer Drug Screen. Data for tumor model P388 Leukemia (intraperitoneal) in B6D2F1 (BDF1) mice. The settings on record: endpoint: median survival time, higher = longer survival. Put shortly: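 Steps: implant the tumour, treat one group with compound and another with vehicle, record survival, then divide treated by control.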

Where “and” joins values, the source holds several entries; their conditions need not be identical. Identical values can stand only once. Inconclusive results and toxic doses are left out.

On to `BrCCC[P+](c1ccccc1)(c1ccccc1)c1ccccc1`, for which the T/C (dose: 0.94 mg/kg/injection, schedule: Q01DX010 (ip), vehicle: saline) was 95 % of control; the T/C (dose: 1.88 mg/kg/injection, schedule: Q01DX010 (ip), vehicle: saline) is 104 % of control; the T/C (dose: 1.9 mg/kg/injection, schedule: Q01DX009 (ip), vehicle: saline) was 105 % of control; the T/C (dose: 3.13 mg/kg/injection, schedule: Q04DX003 (ip), vehicle: saline) is 92 % of control; the T/C (dose: 3.75 mg/kg/injection, schedule: Q01DX009 (ip), vehicle: saline) was 122 % of control; the T/C (dose: 3.75 mg/kg/injection, schedule: Q01DX010 (ip), vehicle: saline) is 114 % of control. Moreover, the T/C by setting is: (dose: 6.25 mg/kg/injection, schedule: Q04DX003 (ip), vehicle: saline) 92 % of control; (dose: 7.5 mg/kg/injection, schedule: Q01DX009 (ip), vehicle: saline) 111 % of control; (dose: 7.5 mg/kg/injection, schedule: Q01DX010 (ip), vehicle: saline) 123 % of control; (dose: 12.5 mg/kg/injection, schedule: Q01DX009 (ip), vehicle: saline with Tween-80) 150 % of control; (dose: 12.5 mg/kg/injection, schedule: Q04DX003 (ip), vehicle: saline) 103 % of control; (dose: 15.0 mg/kg/injection, schedule: Q01DX009 (ip), vehicle: saline) 194 % of control. The T/C (dose: 15.0 mg/kg/injection, schedule: Q01DX010 (ip), vehicle: saline) was 118 % of control.
In the case of `O=C(Nc1nncs1)c1cccs1`, the T/C (dose: 50.0 mg/kg/injection, schedule: Q04DX002 (ip), vehicle: saline with Tween-80) was 109 % of control; the T/C (dose: 100.0 mg/kg/injection, schedule: Q04DX002 (ip), vehicle: saline with Tween-80) was 93 % of control; the T/C (dose: 600.0 mg/kg/injection, schedule: Q04DX002 (ip), vehicle: saline with Tween-80) is 190 % of control.
As for `N#CC1=C(N)CCCC1`, the T/C reads like this: (dose: 50.0 mg/kg/injection, schedule: Q01DX009 (ip), vehicle: saline) 97 % of control; (dose: 100.0 mg/kg/injection, schedule: Q01DX009 (ip), vehicle: saline) 99 % of control; (dose: 200.0 mg/kg/injection, schedule: Q01DX009 (ip), vehicle: saline) 102 % of control.
As for `CC(=O)O[C@H]1C(=O)O[C@@H]2C[C@H]3C(C)=CC(=O)[C@@H](O)[C@]3(C)[C@H]3[C@@]4(O)OC[C@]32[C@@H]1[C@@H](C)[C@H]4O`, the T/C by setting is: (dose: 0.13 mg/kg/injection, schedule: Q01DX010 (ip), vehicle: alcohol) 227 % of control; (dose: 0.2 mg/kg/injection, schedule: Q01DX010 (ip), vehicle: alcohol) 100 % of control; (dose: 0.4 mg/kg/injection, schedule: Q01DX010 (ip), vehicle: alcohol) 150 % of control; (dose: 0.5 mg/kg/injection, schedule: Q01DX009 (ip), vehicle: saline with Tween-80) 120 % of control; (dose: 0.6 mg/kg/injection, schedule: Q01DX010 (ip), vehicle: alcohol) 166 % of control; (dose: 0.75 mg/kg/injection, schedule: Q01DX009 (ip), vehicle: saline) 120 % of control. Moreover, the T/C (dose: 0.75 mg/kg/injection, schedule: Q03HX008 (ip), vehicle: saline) was 110 % of control; the T/C (dose: 0.75 mg/kg/injection, schedule: Q03HX016 (ip), vehicle: saline) is 120 % of control; the T/C (dose: 1.0 mg/kg/injection, schedule: Q01DX009 (ip), vehicle: saline) is 100 % of control; the T/C (dose: 1.0 mg/kg/injection, schedule: Q01DX010 (ip), vehicle: other) is 116 % of control; the T/C (dose: 1.0 mg/kg/injection, schedule: Q01DX010 (ip), vehicle: saline) was 190 % of control; the T/C (dose: 1.5 mg/kg/injection, schedule: Q01DX005 (ip), vehicle: saline) was 100 % of control. For the same compound, the T/C is 110 % of control (dose: 1.5 mg/kg/injection, schedule: Q03HX008 (ip), vehicle: saline); 110 % of control (dose: 1.5 mg/kg/injection, schedule: Q03HX024 (ip), vehicle: saline); 120 % of control (dose: 2.0 mg/kg/injection, schedule: Q01DX010 (ip), vehicle: alcohol); 120 % of control (dose: 2.0 mg/kg/injection, schedule: Q01DX010 (ip), vehicle: other); 190 % of control (dose: 2.0 mg/kg/injection, schedule: Q01DX010 (ip), vehicle: saline); 120 % of control (dose: 3.0 mg/kg/injection, schedule: Q01DX005 (ip), vehicle: saline). The T/C was 120 % of control (dose: 4.0 mg/kg/injection, schedule: Q01DX010 (ip), vehicle: alcohol); 190 % of control (dose: 4.0 mg/kg/injection, schedule: Q01DX010 (ip), vehicle: saline); 100 % of control (dose: 6.0 mg/kg/injection, schedule: Q01DX005 (ip), vehicle: saline); 90 % of control (dose: 6.0 mg/kg/injection, schedule: Q01DX009 (ip), vehicle: saline); 213 % of control (dose: 6.0 mg/kg/injection, schedule: Q01DX010 (ip), vehicle: alcohol); 95 % of control (dose: 6.0 mg/kg/injection, schedule: Q04DX003 (ip), vehicle: saline). Besides, the T/C (dose: 6.0 mg/kg/injection, schedule: Q08DX002 (ip), vehicle: saline) is 100 % of control; the T/C (dose: 8.0 mg/kg/injection, schedule: Q01DX009 (ip), vehicle: saline) was 116 % of control; the T/C (dose: 8.0 mg/kg/injection, schedule: Q01DX010 (ip), vehicle: other) is 158 % of control; the T/C (dose: 9.0 mg/kg/injection, schedule: Q01DX010 (ip), vehicle: alcohol) is 159 % of control; the T/C (dose: 12.0 mg/kg/injection, schedule: Q01DX001 (ip), vehicle: saline) is 110 % of control; the T/C (dose: 12.0 mg/kg/injection, schedule: Q01DX005 (ip), vehicle: saline) was 120 % of control. In addition, the T/C is 95 % of control (dose: 12.0 mg/kg/injection, schedule: Q08DX002 (ip), vehicle: saline); 213 % of control (dose: 13.0 mg/kg/injection, schedule: Q01DX010 (ip), vehicle: alcohol); 100 % of control (dose: 24.0 mg/kg/injection, schedule: Q04DX003 (ip), vehicle: saline); 100 % of control (dose: 24.0 mg/kg/injection, schedule: Q08DX002 (ip), vehicle: saline); 100 % of control (dose: 48.0 mg/kg/injection, schedule: Q04DX003 (ip), vehicle: saline); 100 % of control (dose: 48.0 mg/kg/injection, schedule: Q08DX002 (ip), vehicle: saline). Also, the T/C reads like this: (dose: 96.0 mg/kg/injection, schedule: Q01DX001 (ip), vehicle: saline) 110 % of control; (dose: 96.0 mg/kg/injection, schedule: Q08DX002 (ip), vehicle: saline) 100 % of control; (dose: 192.0 mg/kg/injection, schedule: Q01DX001 (ip), vehicle: saline) 110 % of control; (dose: 57.0 micrograms/kg/injection, schedule: Q01DX010 (ip), vehicle: alcohol) 111 % of control; (dose: 87.0 micrograms/kg/injection, schedule: Q01DX010 (ip), vehicle: alcohol) 107 % of control.
For the compound `ClCc1c2ccccc2c(CCl)c2ccccc12`, the T/C (dose: 0.21 mg/kg/injection, schedule: Q01DX009 (ip), vehicle: saline) was 154 % of control; the T/C (dose: 0.33 mg/kg/injection, schedule: Q01DX009 (ip), vehicle: saline) was 159 % of control and 190 % of control; the T/C (dose: 0.49 mg/kg/injection, schedule: Q01DX009 (ip), vehicle: saline) was 154 % of control; the T/C (dose: 1.3 mg/kg/injection, schedule: Q04DX003 (ip), vehicle: Klucel (hydroxypropylcellulose) (HPC)) was 150 % of control; the T/C (dose: 1.35 mg/kg/injection, schedule: Q01DX009 (ip), vehicle: saline) was 180 % of control; the T/C (dose: 1.5 mg/kg/injection, schedule: Q01DX009 (ip), vehicle: Klucel (hydroxypropylcellulose) (HPC)) is 153 % of control. The T/C (dose: 2.0 mg/kg/injection, schedule: Q04DX003 (ip), vehicle: Klucel (hydroxypropylcellulose) (HPC)) is 170 % of control; the T/C (dose: 3.0 mg/kg/injection, schedule: Q01DX009 (ip), vehicle: Klucel (hydroxypropylcellulose) (HPC)) was 157 % of control and 200 % of control; the T/C (dose: 3.0 mg/kg/injection, schedule: Q04DX003 (ip), vehicle: Klucel (hydroxypropylcellulose) (HPC)) is 154 % of control and 166 % of control; the T/C (dose: 5.0 mg/kg/injection, schedule: Q04DX003 (ip), vehicle: Klucel (hydroxypropylcellulose) (HPC)) is 168 % of control; the T/C (dose: 6.0 mg/kg/injection, schedule: Q01DX009 (ip), vehicle: Klucel (hydroxypropylcellulose) (HPC)) was 105 % of control; the T/C (dose: 8.0 mg/kg/injection, schedule: Q04DX003 (ip), vehicle: Klucel (hydroxypropylcellulose) (HPC)) was 154 % of control and 172 % of control. In addition, the T/C (dose: 12.0 mg/kg/injection, schedule: Q04DX003 (ip), vehicle: Klucel (hydroxypropylcellulose) (HPC)) is 177 % of control.
